From the supplement of paper PMC8612539
Converted amounts (≈) assume the structure as drawn.

Tested on: Pasteurella multocida
Assay: minimum inhibitory concentration (MIC)
Procedure: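 Broth microdilution MIC (Sensititre BOPO7F bovine plate, CLSI methods) of 19 antimicrobials against field isolates of P. multocida, M. haemolytica, H. somni (deep nasopharyngeal swabs) and E. coli, Enterococcus spp. (rectal swabs) from weaned dairy heifers. Incubation 16-24 h at 35 C. MIC is the lowest concentration preventing visible growth. Values with <= or > lie at the tested range limits. Trimethoprim-sulfamethoxazole is given as the trimethoprim component of a 1:19 mixture.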

CS(=O)(=O)c1ccc([C@@H](O)[C@@H](CF)NC(=O)C(Cl)Cl)cc1 [Florfenicol]
Settings | minimum inhibitory concentration [µg/mL]
isolate (source animal id): 10 | 8 (≈ 22.3 µM)
isolate (source animal id): 11 | 8 (≈ 22.3 µM)
isolate (source animal id): 12 | 8 (≈ 22.3 µM)
isolate (source animal id): 19 | 8 (≈ 22.3 µM)
isolate (source animal id): 23 | 8 (≈ 22.3 µM)
isolate (source animal id): 26 | 8 (≈ 22.3 µM)
isolate (source animal id): 98 | 8 (≈ 22.3 µM)
isolate (source animal id): 104 | 0.5 (≈ 1.4 µM)
isolate (source animal id): 115 | 8 (≈ 22.3 µM)
isolate (source animal id): 117 | 0.5 (≈ 1.4 µM)
isolate (source animal id): 118 | 8 (≈ 22.3 µM)
isolate (source animal id): 121 | 8 (≈ 22.3 µM)
isolate (source animal id): 124 | 1 (≈ 2.79 µM)
isolate (source animal id): 125 | 8 (≈ 22.3 µM)
isolate (source animal id): 128 | 8 (≈ 22.3 µM)
isolate (source animal id): 131 | > 8
isolate (source animal id): 135 | > 8
isolate (source animal id): 136 | 8 (≈ 22.3 µM)
isolate (source animal id): 140 | 0.5 (≈ 1.4 µM)
isolate (source animal id): 144 | 8 (≈ 22.3 µM)
isolate (source animal id): 146 | 8 (≈ 22.3 µM)
isolate (source animal id): 150 | 8 (≈ 22.3 µM)
isolate (source animal id): 151 | 8 (≈ 22.3 µM)
isolate (source animal id): 153 | 8 (≈ 22.3 µM)
isolate (source animal id): 155 | 0.5 (≈ 1.4 µM)
isolate (source animal id): 157 | 8 (≈ 22.3 µM)
isolate (source animal id): 160 | 8 (≈ 22.3 µM)
isolate (source animal id): 164 | 8 (≈ 22.3 µM)
isolate (source animal id): 165 | 8 (≈ 22.3 µM)
isolate (source animal id): 167 | 0.5 (≈ 1.4 µM)
isolate (source animal id): 168 | 1 (≈ 2.79 µM)
isolate (source animal id): 169 | 0.5 (≈ 1.4 µM)
isolate (source animal id): 170 | > 8
isolate (source animal id): 171 | 0.5 (≈ 1.4 µM)
isolate (source animal id): 172 | 0.5 (≈ 1.4 µM)
isolate (source animal id): 173 | 1 (≈ 2.79 µM)
isolate (source animal id): 174 | 0.5 (≈ 1.4 µM)
isolate (source animal id): 175 | 0.5 (≈ 1.4 µM)
isolate (source animal id): 176 | 0.5 (≈ 1.4 µM)
isolate (source animal id): 177 | 0.5 (≈ 1.4 µM)
isolate (source animal id): 178 | 0.5 (≈ 1.4 µM)
isolate (source animal id): 179 | 0.5 (≈ 1.4 µM)
isolate (source animal id): 182 | 0.5 (≈ 1.4 µM)
isolate (source animal id): 192 | 0.5 (≈ 1.4 µM)
isolate (source animal id): 193 | 0.5 (≈ 1.4 µM)
isolate (source animal id): 195 | 0.5 (≈ 1.4 µM)
isolate (source animal id): 196 | 0.5 (≈ 1.4 µM)
isolate (source animal id): 197 | 0.5 (≈ 1.4 µM)
isolate (source animal id): 198 | 1 (≈ 2.79 µM)
isolate (source animal id): 199 | 0.5 (≈ 1.4 µM)
isolate (source animal id): 200 | 0.5 (≈ 1.4 µM)
isolate (source animal id): 201 | 0.5 (≈ 1.4 µM)
isolate (source animal id): 203 | 0.5 (≈ 1.4 µM)
isolate (source animal id): 204 | 0.5 (≈ 1.4 µM)
isolate (source animal id): 205 | 1 (≈ 2.79 µM)
isolate (source animal id): 206 | 0.5 (≈ 1.4 µM)
isolate (source animal id): 207 | 0.5 (≈ 1.4 µM)
isolate (source animal id): 208 | 0.5 (≈ 1.4 µM)
isolate (source animal id): 209 | 0.5 (≈ 1.4 µM)
isolate (source animal id): 210 | 1 (≈ 2.79 µM)
isolate (source animal id): 213 | 0.5 (≈ 1.4 µM)
isolate (source animal id): 216 | 0.5 (≈ 1.4 µM)
isolate (source animal id): 223 | 1 (≈ 2.79 µM)
isolate (source animal id): 227 | 0.5 (≈ 1.4 µM)
isolate (source animal id): 229 | 8 (≈ 22.3 µM)
isolate (source animal id): 233 | 0.5 (≈ 1.4 µM)
isolate (source animal id): 234 | 8 (≈ 22.3 µM)
isolate (source animal id): 237 | 8 (≈ 22.3 µM)
isolate (source animal id): 241 | 8 (≈ 22.3 µM)
isolate (source animal id): 245 | 0.5 (≈ 1.4 µM)
isolate (source animal id): 247 | 0.5 (≈ 1.4 µM)
isolate (source animal id): 250 | 8 (≈ 22.3 µM)
isolate (source animal id): 254 | > 8
isolate (source animal id): 255 | 4 (≈ 11.2 µM)
isolate (source animal id): 258 | 0.5 (≈ 1.4 µM)
isolate (source animal id): 261 | 8 (≈ 22.3 µM)
isolate (source animal id): 262 | > 8
isolate (source animal id): 269 | 0.5 (≈ 1.4 µM)
isolate (source animal id): 270 | 8 (≈ 22.3 µM)
isolate (source animal id): 274 | > 8
isolate (source animal id): 275 | > 8
isolate (source animal id): 276 | 0.5 (≈ 1.4 µM)
isolate (source animal id): 277 | 0.5 (≈ 1.4 µM)
isolate (source animal id): 278 | > 8
isolate (source animal id): 279 | 1 (≈ 2.79 µM)
isolate (source animal id): 280 | 0.5 (≈ 1.4 µM)
isolate (source animal id): 284 | 8 (≈ 22.3 µM)
isolate (source animal id): 285 | > 8
isolate (source animal id): 287 | > 8
isolate (source animal id): 290 | > 8
isolate (source animal id): 294 | > 8
isolate (source animal id): 295 | 8 (≈ 22.3 µM)
isolate (source animal id): 296 | 0.5 (≈ 1.4 µM)
isolate (source animal id): 307 | > 8
isolate (source animal id): 310 | > 8
isolate (source animal id): 311 | 8 (≈ 22.3 µM)
isolate (source animal id): 312 | 8 (≈ 22.3 µM)
isolate (source animal id): 313 | > 8
isolate (source animal id): 315 | > 8
isolate (source animal id): 316 | > 8

COc1cc(NS(=O)(=O)c2ccc(N)cc2)nc(OC)n1 [sulfadimethoxine]
Settings | minimum inhibitory concentration [µg/mL]
isolate (source animal id): 10 | > 256
isolate (source animal id): 11 | > 256
isolate (source animal id): 12 | > 256
isolate (source animal id): 19 | > 256
isolate (source animal id): 23 | > 256
isolate (source animal id): 26 | > 256
isolate (source animal id): 98 | > 256
isolate (source animal id): 104 | > 256
isolate (source animal id): 115 | > 256
isolate (source animal id): 117 | > 256
isolate (source animal id): 118 | > 256
isolate (source animal id): 121 | > 256
isolate (source animal id): 124 | > 256
isolate (source animal id): 125 | > 256
isolate (source animal id): 128 | > 256
isolate (source animal id): 131 | > 256
isolate (source animal id): 135 | > 256
isolate (source animal id): 136 | > 256
isolate (source animal id): 140 | > 256
isolate (source animal id): 144 | > 256
isolate (source animal id): 146 | > 256
isolate (source animal id): 150 | > 256
isolate (source animal id): 151 | > 256
isolate (source animal id): 153 | > 256
isolate (source animal id): 155 | > 256
isolate (source animal id): 157 | > 256
isolate (source animal id): 160 | > 256
isolate (source animal id): 164 | > 256
isolate (source animal id): 165 | > 256
isolate (source animal id): 167 | > 256
isolate (source animal id): 168 | > 256
isolate (source animal id): 169 | > 256
isolate (source animal id): 170 | > 256
isolate (source animal id): 171 | > 256
isolate (source animal id): 172 | > 256
isolate (source animal id): 173 | > 256
isolate (source animal id): 174 | > 256
isolate (source animal id): 175 | > 256
isolate (source animal id): 176 | > 256
isolate (source animal id): 177 | > 256
isolate (source animal id): 178 | > 256
isolate (source animal id): 179 | > 256
isolate (source animal id): 182 | > 256
isolate (source animal id): 192 | > 256
isolate (source animal id): 193 | > 256
isolate (source animal id): 195 | > 256
isolate (source animal id): 196 | > 256
isolate (source animal id): 197 | > 256
isolate (source animal id): 198 | > 256
isolate (source animal id): 199 | > 256
isolate (source animal id): 200 | > 256
isolate (source animal id): 201 | > 256
isolate (source animal id): 203 | > 256
isolate (source animal id): 204 | > 256
isolate (source animal id): 205 | > 256
isolate (source animal id): 206 | > 256
isolate (source animal id): 207 | > 256
isolate (source animal id): 208 | > 256
isolate (source animal id): 209 | > 256
isolate (source animal id): 210 | > 256
isolate (source animal id): 213 | > 256
isolate (source animal id): 216 | > 256
isolate (source animal id): 223 | > 256
isolate (source animal id): 227 | > 256
isolate (source animal id): 229 | > 256
isolate (source animal id): 233 | > 256
isolate (source animal id): 234 | > 256
isolate (source animal id): 237 | > 256
isolate (source animal id): 241 | > 256
isolate (source animal id): 245 | > 256
isolate (source animal id): 247 | > 256
isolate (source animal id): 250 | > 256
isolate (source animal id): 254 | > 256
isolate (source animal id): 255 | > 256
isolate (source animal id): 258 | > 256
isolate (source animal id): 261 | > 256
isolate (source animal id): 262 | > 256
isolate (source animal id): 269 | > 256
isolate (source animal id): 270 | > 256
isolate (source animal id): 274 | > 256
isolate (source animal id): 275 | > 256
isolate (source animal id): 276 | > 256
isolate (source animal id): 277 | > 256
isolate (source animal id): 278 | > 256
isolate (source animal id): 279 | > 256
isolate (source animal id): 280 | > 256
isolate (source animal id): 284 | > 256
isolate (source animal id): 285 | > 256
isolate (source animal id): 287 | > 256
isolate (source animal id): 290 | > 256
isolate (source animal id): 294 | > 256
isolate (source animal id): 295 | > 256
isolate (source animal id): 296 | > 256
isolate (source animal id): 307 | > 256
isolate (source animal id): 310 | > 256
isolate (source animal id): 311 | > 256
isolate (source animal id): 312 | > 256
isolate (source animal id): 313 | > 256
isolate (source animal id): 315 | > 256
isolate (source animal id): 316 | > 256
